Data as given in US20210403435A1, “HERBICIDAL COMPOUNDS” (SYNGENTA CROP PROTECTION AG, priority 2018, published 2021).
Counter-ions that a name gives are not always drawn. Like-named read-outs stand apart in the source and are kept apart here.

What was measured:
Test in all cases: Post-emergence efficacy, glasshouse, evaluated after 13 days
Assay type in all cases: in vivo
[1] = system: Amaranthus palmeri (AMAPA); settings: for pest or weed control at 500 g/ha: Amaranthus palmeri, 312 h, read-out: Control of weed species AMAPA (100=total damage to plant; 0=no damage to plant)
Method in brief: (§1)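 Injury assessed 13 days after a post-emergence spray, 0 = no damage and 100 = total damage. Spray liquid: compound in acetone/IF50 (Emulsogen EL360, N-methylpyrrolidone, Dowanol DPM), diluted with 0.25% or 1% sodium lauryl ether sulphate plus 1% ammonium sulphate.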

[2] = system: Chenopodium album (CHEAL); settings: for pest or weed control at 500 g/ha: Chenopodium album, 312 h, read-out: Control of weed species CHEAL (100=total damage to plant; 0=no damage to plant)
Method in brief: as §1

[3] = system: Digitaria sanguinalis (DIGSA); settings: for pest or weed control at 500 g/ha: Digitaria sanguinalis, 312 h, read-out: Control of weed species DIGSA (100=total damage to plant; 0=no damage to plant)
Method in brief: as §1

[4] = system: Echinochloa crus-galli (ECHCG); settings: for pest or weed control at 500 g/ha: Echinochloa crus-galli, 312 h, read-out: Control of weed species ECHCG (100=total damage to plant; 0=no damage to plant)
Method in brief: as §1

Eleusine indica (ELEIN) = settings: for pest or weed control at 500 g/ha: Eleusine indica, 312 h, read-out: Control of weed species ELEIN (100=total damage to plant; 0=no damage to plant)
Method in brief: as §1

[5] = system: Euphorbia heterophylla (EPHHL); settings: for pest or weed control at 500 g/ha: Euphorbia heterophylla, 312 h, read-out: Control of weed species EPHHL (100=total damage to plant; 0=no damage to plant)
Method in brief: as §1

[6] = system: Ipomoea hederacea (IPOHE); settings: for pest or weed control at 500 g/ha: Ipomoea hederacea, 312 h, read-out: Control of weed species IPOHE (100=total damage to plant; 0=no damage to plant)
Method in brief: as §1

Lolium perenne (LOLPE) = settings: for pest or weed control at 500 g/ha: Lolium perenne, 312 h, read-out: Control of weed species LOLPE (100=total damage to plant; 0=no damage to plant)
Method in brief: as §1

Setaria faberi (SETFA) = settings: for pest or weed control at 500 g/ha: Setaria faberi, 312 h, read-out: Control of weed species SETFA (100=total damage to plant; 0=no damage to plant)
Method in brief: as §1

[7] = post-emergence application, 500 g/Ha, evaluated after 13 days

SMILES	pest or weed control at 500 g/ha [1, 7] [%]	pest or weed control at 500 g/ha [2, 7] [%]	pest or weed control at 500 g/ha [3, 7] [%]	pest or weed control at 500 g/ha [4, 7] [%]	pest or weed control at 500 g/ha (Eleusine indica (ELEIN); [7]) [%]	pest or weed control at 500 g/ha [5, 7] [%]	pest or weed control at 500 g/ha [6, 7] [%]	pest or weed control at 500 g/ha (Lolium perenne (LOLPE); [7]) [%]	pest or weed control at 500 g/ha (Setaria faberi (SETFA); [7]) [%]	further results
CC1CC1NC(=O)c1cc[n+](CCC(=O)O)nc1 (stereo not drawn) [Compound A101]	100	100	100	90	70	50	50	80	90	–
CC#CCNC(=O)c1cc[n+](CCC(=O)O)nc1 [Compound A86]	100	90	100	100	90	100	20	60	100	–
CC1(NC(=O)c2cc[n+](CCC(=O)O)nc2)CC1 [Compound A92]	100	100	100	80	90	100	50	90	100	–
CN(C)C(=O)c1cn[n+](CCS(=O)(=O)O)cc1-c1ccccc1 [Compound A64]	100	30	40	50	40	40	30	20	30	–
CC(C)NC(=O)c1cc[n+](CCS(=O)(=O)O)nc1 [Compound A5]	90	70	50	60	40	30	60	50	40	–
C#CCNC(=O)c1cc[n+](CCNS(=O)(=O)[O-])nc1 [Compound A141]	100	100	70	40	90	60	70	70	40	–
O=C(O)CC[n+]1ccc(C(=O)N2CCS(=O)(=O)CC2)cn1 [Compound A108]	100	100	90	70	80	80	70	40	90	–
CCNC(=O)c1cc[n+](CC(C)C(=O)O)nc1 (stereo not drawn) [Compound A60]	100	20	100	60	100	90	70	100	100	–
CCS(=O)(=O)CCNC(=O)c1cc[n+](CCC(=O)O)nc1 [Compound A118]	100	100	100	40	50	90	40	50	90	–
CNC(=O)c1cc[n+](CCCS(=O)(=O)[O-])nc1 [Compound A11]	40	80	70	70	10	70	30	30	20	–
O=C(O)CC[n+]1ccc(C(=O)NC2CC2)cn1 [Compound A31]	100	100	100	70	100	100	30	70	100	–
O=C(O)CC[n+]1ccc(C(=O)N2CCCCC2)cn1 [Compound A24, 3-[4-(piperidine-1-carbonyl)pyridazin-1-ium-1-yl]propanoic acid trifluoroacetate]	–	–	–	–	–	–	–	–	–	pest or weed control at 500 g/ha ([1]; post-emergence): 100%; pest or weed control at 500 g/ha ([2]; post-emergence): 90%; pest or weed control at 500 g/ha ([3]; post-emergence): 70%; pest or weed control at 500 g/ha ([4]; post-emergence): 60%; pest or weed control at 500 g/ha (Eleusine indica (ELEIN); post-emergence): 60%; pest or weed control at 500 g/ha ([5]; post-emergence): 90%; pest or weed control at 500 g/ha ([6]; post-emergence): 30%; pest or weed control at 500 g/ha (Lolium perenne (LOLPE); post-emergence): 30%; pest or weed control at 500 g/ha (Setaria faberi (SETFA); post-emergence): 60%
C#CCCNC(=O)c1cc[n+](CCC(=O)O)nc1 [Compound A114]	100	90	100	90	100	80	60	80	100	–
Cn1ncnc1CCNC(=O)c1cc[n+](CCC(=O)O)nc1 [Compound A144]	100	100	80	60	100	90	50	60	90	–
O=C(c1cc[n+](CCS(=O)(=O)[O-])nc1)N1CCOCC1 [Compound A28]	100	90	70	50	70	80	60	60	70	–
CNC(=O)c1cc[n+](CC[C@H](N)C(=O)O)nc1.O=C(O)C(F)(F)F.O=C([O-])C(F)(F)F [Compound A12]	–	–	–	–	–	–	–	–	–	Control of weed species AMAPA (100=total damage to plant; 0=no damage to plant) [1, 7]: 90; Control of weed species CHEAL (100=total damage to plant; 0=no damage to plant) [2, 7]: 60; Control of weed species DIGSA (100=total damage to plant; 0=no damage to plant) [3, 7]: 90; Control of weed species ECHCG (100=total damage to plant; 0=no damage to plant) [4, 7]: 80; Control of weed species ELEIN (100=total damage to plant; 0=no damage to plant) (Eleusine indica (ELEIN); [7]): 60; Control of weed species EPHHL (100=total damage to plant; 0=no damage to plant) [5, 7]: 70; Control of weed species IPOHE (100=total damage to plant; 0=no damage to plant) [6, 7]: 40; Control of weed species LOLPE (100=total damage to plant; 0=no damage to plant) (Lolium perenne (LOLPE); [7]): 40; Control of weed species SETFA (100=total damage to plant; 0=no damage to plant) (Setaria faberi (SETFA); [7]): 60
CNC(=O)c1cc[n+](CCS(=O)(=O)[O-])nc1 [Compound A1, 2-[4-(methylcarbamoyl)pyridazin-1-ium-1-yl]ethanesulfonate]	100	70	90	60	70	70	60	80	80	–
